Measured values: patent publication US5021562A, “Method for azide displacement of α-triflates of 1,5-lactones” (Monsanto Company, priority 1990, dated 1991)

Experiments:
Assay type in all cases: biochemical
[1] = biological target: T1, human liver α-fucosidase (Homo sapiens, UniProt P04066); experiment: Inhibition of human liver α-fucosidase
T1 construct: from tissue; host or cells: human liver
T1 sequence (P04066 32-466): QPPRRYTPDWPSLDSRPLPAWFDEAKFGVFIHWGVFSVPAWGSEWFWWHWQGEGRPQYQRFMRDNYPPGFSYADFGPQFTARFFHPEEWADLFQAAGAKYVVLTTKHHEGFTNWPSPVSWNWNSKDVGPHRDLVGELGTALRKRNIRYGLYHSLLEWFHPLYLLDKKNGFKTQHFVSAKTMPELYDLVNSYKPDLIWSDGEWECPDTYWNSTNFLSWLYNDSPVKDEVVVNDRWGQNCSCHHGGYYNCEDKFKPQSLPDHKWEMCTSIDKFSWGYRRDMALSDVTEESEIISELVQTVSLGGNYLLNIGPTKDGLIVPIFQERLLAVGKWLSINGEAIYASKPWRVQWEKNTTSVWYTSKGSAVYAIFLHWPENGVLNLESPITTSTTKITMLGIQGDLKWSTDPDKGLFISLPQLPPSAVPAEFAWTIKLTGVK
Description: % Inhibition of human liver α-fucosidase and α-mannosidase
catalysed hydrolysis of 4-umbelliferyl pyrranosides at
1 mM concentration of inhibitor

[2] = system: β-mannosidase; experiment: Inhibition of human liver β-mannosidase (glycosidase panel)
Source text: (§1) The relative potencies of these compounds as fucosidase inhibitors may be understood by considering them as analogues of α-L-fucose; all three compounds have the correct chirality of the secondary hydroxyl groups - the minimum requirement for inhibition of α-fucosidase. […] All the compounds are weaker inhibitors of α-fucosidase than is deoxyfuconojirimycin, since they all lack a lipophilic methyl substituent with correct configuration.

[3] = system: human α-mannosidases; experiment: Inhibition of human α-mannosidases (overall statement, glycosidase panel)
Source text: as §1

| Structure (SMILES) | inhibition of α-fucosidase (in words) [1] | inhibition of β-mannosidase (in words) [2] | inhibition of α-mannosidases (in words) [3] |
| --- | --- | --- | --- |
| OC[C@H]1N[C@H](CO)[C@@H](O)C(O)[C@@H]1O (stereo partly drawn) [α-HMJ, 2,6-Dideoxy-2,6-imino-D-glycero-D-talo-heptitol] | only a weak inhibitor | Neither compound inhibited β-mannosidase | very similar |
| OC[C@H]1NC[C@@H](O)[C@@H](O)[C@@H]1O [DMJ, reference compound] | powerful inhibitors of α-fucosidase | Neither compound inhibited β-mannosidase | very similar |
| OC[C@@H]1N[C@H](CO)[C@@H](O)[C@@H](O)[C@@H]1O [6-epi-HMJ, 2,6-dideoxy-2,6-imino-L-glycero-D-talo-heptitol] | powerful inhibitors of α-fucosidase |  | did not inhibit any α-mannosidase |
